Data as given in patent US8207172B2 (Bayer Intellectual Property GmbH, priority 2004, dated 2012).

Legend:
[1] = system: BT474 (human breast carcinoma); assay: In vitro tumor cell proliferation assay (Cell Titer-Glo luminescent cell viability), BT474; format: cell-based; settings: BT-474, 72 h, BT474 cells, 72 hours of drug exposure, ATP luminescence readout, read-out: IC50, anti-proliferative activity (inhibition of cell proliferation)
Text: (§1) In vitro Tumor Cell Proliferation Assay
(§2) The tumor cell proliferation assay used to test the compounds of the present invention involves a readout called Cell Titer-Glow® Luminescent Cell Viability Assay developed by Promega® (Cunningham, B A “A Growing Issue: Cell Proliferation Assays, Modern kits ease quantification of cell growth” The Scientist 2001, 15(13), 26, and Crouch, S P et al., “The use of ATP bioluminescence as a measure of cell proliferation and cytotoxicity” Journal of Immunological Methods 1993, 160, 81-88), that measures inhibition of cell proliferation. Generation of a luminescent signal corresponds to the amount of ATP present, which is directly proportional to the number of metabolically active (proliferating) cells.
(§3) A431cells (human epidermoid carcinoma, ATCC […]) and BT474 (human breast carcinoma, ATCC […]) were plated at a density of 2.5×10^3 cells/well in 96 well black-clear bottom tissue culture plates in RPMI media with 10% Fetal Bovine Serum and incubated at 37° C. Twenty-four hours later, test compounds are added at a final concentration range from as high […] to as low 64 pM depend on the activities of the tested compounds in serial dilutions at a final DMSO concentration of 0.1%. Cells were incubated for 72 hours at 37° C. in complete growth media after addition of the test compound. After 72 hours of drug exposure, the plates were equilibrated to room temperature for approximately 30 min. Then, using a Promega Cell Titer Glo Luminescent® assay kit, lysis buffer containing 100 microliters of the enzyme luciferase and its substrate, luciferin mixture, was added to each well. The plates were mixed for 2 min on orbital shaker to ensure cell lysis and incubated for 10 min at room temperature to stabilize luminescence signal. The samples were read on VICTOR 2 using Luminescence protocol, and analyzed with Analyze5 software to generate IC50 values.

[2] = system: A431 cells (human epidermoid carcinoma); assay: In vitro tumor cell proliferation assay (Cell Titer-Glo luminescent cell viability), A431; format: cell-based; settings: A-431, 72 h, 72 hours of drug exposure, ATP luminescence readout, read-out: IC50, anti-proliferative activity (inhibition of cell proliferation)
Text: as §1, §2, §3

| SMILES | IC50 [1] [µM] | IC50 [2] [µM] |
| --- | --- | --- |
| Fc1ccc(Nc2ncnc3sc4c(c23)CCc2nn(CCBr)cc2-4)cc1Cl [Example 6, 2-(2-bromoethyl)-N-(3-chloro-4-fluorophenyl)-4,5-dihydro-2H-pyrimido[5′,4′:4,5]thieno[2,3-e]indazol-6-amine] | ≤ 5 | – |
| CS(=O)(=O)OCCn1cc2c(n1)CCc1c-2sc2ncnc(Nc3ccc4c(cnn4Cc4ccccc4)c3)c12 [Example 303, 2-{6-[(1-benzyl-1H-indazol-5-yl)amino]-4,5-dihydro-2H-pyrimido[5′,4′:4,5]thieno[2,3-e]indazol-2-yl}ethyl methanesulfonate] | ≤ 1 | – |
| c1ccc(Cn2ncc3cc(Nc4ncnc5sc6c(c45)CCc4nn(CCN5CCNCC5)cc4-6)ccc32)cc1 [Example 306, N-(1-benzyl-1H-indazol-5-yl)-2-(2-piperazin-1-ylethyl)-4,5-dihydro-2H-pyrimido[5′,4′:4,5]thieno[2,3-e]indazol-6-amine] | ≤ 1 | – |
| CN1CCN(CCn2cc3c(n2)CCc2c-3sc3ncnc(Nc4ccc5c(ccn5Cc5ccccc5)c4)c23)CC1 [Example 337, N-(1-benzyl-1H-indol-5-yl)-2-[2-(4-methylpiperazin-1-yl)ethyl]-4,5-dihydro-2H-pyrimido[5′,4′:4,5]thieno[2,3-e]indazol-6-amine] | ≤ 1 | – |
| CN1CCN(CCn2cc3c(n2)CCc2c-3sc3ncnc(Nc4cccc(Cl)c4)c23)CC1 [Example 47, N-(3-chlorophenyl)-2-[2-(4-methylpiperazin-1-yl)ethyl]-4,5-dihydro-2H-pyrimido[5′,4′:4,5]thieno[2,3-e]indazol-6-amine] | – | ≤ 5 |
| OC[C@@H](O)Cn1cc2c(n1)CCc1c-2sc2ncnc(Nc3ccc(F)c(Cl)c3)c12 [Example 43, (S)-3-[6-(3-Chloro-4-fluoro-phenylamino)-4,5-dihydro-10-thia-2,3,7,9-tetraaza-cyclopenta[a]fluoren-2-yl}-propane-1,2-diol] | – | ≤ 5 |
| CN1CCN(CCn2cc3c(n2)CCc2c-3sc3ncnc(Nc4ccc(OCc5cscn5)c(Cl)c4)c23)CC1 [Example 347, N-[3-chloro-4-(1,3-thiazol-4-ylmethoxy)phenyl]-2-[2-(4-methylpiperazin-1-yl)ethyl]-4,5-dihydro-2H-pyrimido[5′,4′:4,5]thieno[2,3-e]indazol-6-amine bis(trifluoroacetate)] | – | ≤ 50 |
| Cc1cccc(COc2ccc(Nc3ncnc4sc5c(c34)CCc3nn(C[C@H](O)CO)cc3-5)cc2Cl)n1 [Example 359, (2S)-3-[6-({3-chloro-4-[(6-methylpyridin-2-yl)methoxy]phenyl}amino)-4,5-dihydro-2H-pyrimido[5′,4′:4,5]thieno[2,3-e]indazol-2-yl]propane-1,2-diol] | – | ≤ 50 |
| OC[C@@H](O)Cn1cc2c(n1)CCc1c-2sc2ncnc(Nc3ccc4c(cnn4Cc4ccccc4)c3)c12 [Example 358, (2S)-3-{6-[(1-benzyl-1H-indazol-5-yl)amino]-4,5-dihydro-2H-pyrimido[5′,4′:4,5]thieno[2,3-e]indazol-2-yl}propane-1,2-diol] | – | ≤ 5 |
| OC[C@H](O)Cn1cc2c(n1)CCc1c-2sc2ncnc(Nc3ccc(OCc4ccccn4)c(Cl)c3)c12 [Example 350, 3-(6-{[3-chloro-4-(pyridin-2-ylmethoxy)phenyl]amino}-4,5-dihydro-2H-pyrimido[5′,4′:4,5]thieno[2,3-e]indazol-2-yl)propane-1,2-diol] | – | ≤ 5 |
| OCC(CO)n1cc2c(n1)CCc1c-2sc2ncnc(Nc3ccc(OCc4cccc(F)c4)c(Cl)c3)c12 [Example 360, 2-[6-({3-chloro-4-[(3-fluorobenzyl)oxy]phenyl}amino)-4,5-dihydro-2H-pyrimido[5′,4′:4,5]thieno[2,3-e]indazol-2-yl]propane-1,3-diol] | – | ≤ 5 |
| OC[C@H](O)Cn1cc2c(n1)CCc1c-2sc2ncnc(Nc3ccc4c(cnn4Cc4ccccc4)c3)c12 [Example 353, (2R)-3-{6-[(1-benzyl-1H-indazol-5-yl)amino]-4,5-dihydro-2H-pyrimido[5′,4′:4,5]thieno[2,3-e]indazol-2-yl}propane-1,2-diol] | – | ≤ 5 |
